# Tests used:
# [1] = Rheological testing, shear thinning of hydrogel; assay type: physicochemical, porcine; conditions: 37° C., FIG. 2D
# Protocol: Rheological measurements were performed using a Discovery HR-3 Hybrid Rheometer (TA Instruments, DE) with a 20 mm diameter parallel plate geometry and a Peltier plate to maintain the sample temperature. Shear thinning experiments were performed by varying the strain rate while maintaining a fixed strain of 20%.
# The mechanical properties of an exemplary native ECM-based hydrogel and of cross-linked hydrogels were assessed by rheological measurements. Shear thinning Measurements were conducted at 37° C. Data are presented as mean±SD, n=3. P-values were calculated using a Comparison of Fits test with an Extra Sum of Squares F-test.
# [2] = previous studies; cells added after crosslinking; cited from earlier work
# [3] = Compressive (bulk) modulus of hydrogel; assay type: physicochemical, porcine; conditions: compression, FIG. 2E
# Protocol: The compressive modulus measurements were performed using a Discovery HR-3 Hybrid Rheometer (TA Instruments, DE) with a 20 mm diameter parallel plate geometry and a Peltier plate to maintain the sample temperature. Bulk modulus tests were performed by compressing the samples at a fixed rate of 100 μm s^−1.
# Alongside the rheological testing, the bulk mechanical properties of the hydrogel were also assessed. Samples were compressed, and the linear elastic modulus was calculated. Data are presented as mean±SD, n=3.
# [4] = tested on: Primary human umbilical vein endothelial cells (HUVECs); assay: Cell viability of HUVECs in 2D culture with SOx (PrestoBlue); assay type: cell-based; conditions: SOx concentrations lower than 0.1% in the culturing medium, 48 hours, FIG. 2C
# Protocol: Primary human umbilical vein endothelial cells (HUVECs) (Angio-Proteomie) were maintained in Endothelial Growth Medium (EGM-2) (Lonza) supplemented with an additional 1.5% (v/v) fetal bovine serum (FBS) (Biological Industries). Daily, PrestoBlue™ Cell Viability Reagent (Invitrogen) was added and cells were incubated for a fixed time interval. The medium was then transferred to a clean, opaque tissue culture well plate and fresh medium was added to the cells. The fluorescence was measured at 560/590 nm (Infinite M200 Pro).
# Cells were incubated for 48 hours in 2D culture in order to allow toxic effects to become discernable. Data are presented in FIG. 2C as mean±standard deviation (SD), n=4.
# [5] = ninhydrin absorbance normalized to control, FIG. 2F
# Protocol: Aliquots of hydrogel (1 mL) were taken and either reacted with SOx or used as a control. Samples were lyophilized and then immersed in a 0.05% acetic acid solution (1 mL). To this was added 2% Ninhydrin in ethanol (w/v) (1 mL). The mixture was boiled for 90 minutes. Aliquots were taken and the absorbance of the solution was recorded at 570 nm (Infinite M200 Pro; Tecan, Switzerland).
# To determine the ability of SOx to react with an ECM-based hydrogel, the concentration of amine groups present in the ECM before and after exposure to the Sox was assessed. […] Data are presented as mean±SD, n=4. All values were normalized to the average value of the control group. P-values were calculated using a one-tailed, unpaired, parametric t-test assuming that all samples have the same distribution.
substance,measurement,setting,value
Oxidized sucrose [SOx],"gel viscosity, further change when increasing the SOx concentration",[1]; SOx raised from 0.03% to 0.07%,smaller increase
same,gel viscosity versus control gel,[1]; hydrogel cross-linked with 0.03% SOx,large increase in gel viscosity
same,toxicity when used to cross-link non-cellularized scaffolds,[2],reduced toxicity profile
same,hydrogel bulk modulus (linear elastic modulus) with and without exposure to SOx,[3],significant reinforcement of the hydrogel
same,impact on cell viability,[4],no impact on cell viability
same,amines of the hydrogel that had reacted with the cross-linker,[5],46%
